Source: PMC10488055, “Investigation of Potential cGMP-Specific PDE V and Aminopeptidase N Inhibitors of Allium ampeloprasum L. and Its Bioactive Components: Kinetic and Molecular Docking Studies” (International Journal of Molecular Sciences, 2023)
Read-outs that look alike come from different tables or passages of the source.

Assays:
Assay type in all cases: biochemical
APN = molecular target: T1, APN (Homo sapiens, UniProt P15144); assay: Kinetic assay (Lineweaver–Burk) on APN; details: for inhibition type against APN: from Kik/Kiv ratio, new decision system [27]; for Vmax value of APN, fold of non-treated group: non-treated 0.316 mU/min = 1.0-fold
T1 construct: purchased Sigma-Aldrich
Description: (§1) Lineweaver–Burk plots were employed to analyze the inhibition of the target enzyme. These plots were represented as 1/velocity (1/V) versus 1/substrate concentration (1/(S)) in the presence or absence of each sample (non-treated (black circle), 10 μg or 1 mM (blue circle), 20 μg or 2 mM (green circle), 50 μg or 5 mM (orange circle), and 100 μg or 10 mM (purple circle)) as an inhibitor against APN.
(§2) These reactions were conducted in a total volume of 80 μL. by a previously described method. The Michaelis–Menten constant (Km) and maximal velocity (Vmax) were calculated using the x and y intercepts, respectively. […] Additionally, the Kik and Kiv inhibition constants were calculated using previously described methods.

aminopeptidase N (APN) = molecular target: T2, aminopeptidase N (APN) (Homo sapiens, UniProt P15144); assay: Aminopeptidase N (APN) enzyme activity assay with L-p-NA substrate; details: for inhibition of APN in in vitro enzyme assay: at the highest concentration; for enzymatic activity of APN: treatment with 10 mM, without sample 0.38 U
T2 construct: purchased Sigma-Aldrich
Description: Figure 2 Effects of AAE and AAE-derived compounds on APN activity. […] The reaction was started by adding 20 μL enzyme solution (1 mU) and incubated for 60 min at 37 °C. The absorbance of samples were measured at 405 nm to determine the formation of p-nitroaniline. Each value is the mean ± SD of triplicate measurements. * p < 0.05 and ** p < 0.01, compared to each control group (Con). Con, control group treated enzyme only.
The activity of APN was determined according to Melzig et al.. Briefly, the enzyme substrate L-p-NA (2 mM) was dissolved in 50 mM N-(2-hydroxyethyl)piperazine-N’-2ethansulfonic acid (HEPES) buffer (pH 7.4) containing 154 mM NaCl. […] The reaction was started by adding 20 μL enzyme solution (approximately 1 mU in HEPES-buffer) and incubated for 60 min at 37 °C. The samples were measured spectrophotometrically at 405 nm to determine the formation of p-nitroanilmne. APN inhibitory activity (%) = ([Absorbance control without sample − Absorbance control with sample]/Absorbance control without sample) × 100

PDE5 = PDE5 (Homo sapiens, UniProt O76074); assay: Kinetic assay (Lineweaver–Burk) on PDE5;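 for Kcat: pure compound doses in mM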; design: Vmax / Kcat: unit of the concentration uncertain; details: for Kik/Kiv / Ki: PDE5; for Kik/Kiv: ratio according to Yang et al. [27]; for inhibition type against PDE5: from changes of Km and 1/Vmax (Lineweaver–Burk), putative decision system [27]; for Vmax value of PDE5, fold of non-treated group: non-treated 1.039 mU/min = 1.0-fold
Description: as §1, with “(1/[S])” for “(1/(S))”, “(orange” for “(blue”, “(silver” for “(green”, “(yellow” for “(orange”, “(blue” for “(purple”, “PDE5.” for “APN.”
as §2

[1] = molecular target: cGMP-specific PDE V (PDE5) (Homo sapiens, UniProt O76074); assay: cGMP-specific PDE V (PDE5) enzyme activity assay with p-NPPPh substrate; details: for inhibition rate of PDE5: at the highest concentration (in vitro enzyme assay); for reduction of PDE5 enzymatic activity: range over 1, 2, 5, and 10 mM
Description: Following the addition of 10 mM p-NPPPh, the reaction mixture was incubated at 37 °C for 10 min. After the incubation period, the concentration of liberated 4-nitrophenol was determined by measuring its absorbance values at a wavelength of 405 nm using a microplate reader. […] Con, control group treated enzyme only.
The specific substrate used for PDE5 was p-NPPPh, following a previously described method. The enzyme solution was prepared by adding 1 U of PDE5 to a volume of 10 μL in 40 mM Tris-HCl buffer at pH 7.4. The substrate solution (10 mM) was prepared by dissolving the substrate in Tris-HCl buffer at pH 7.4. […] Following the pretreatment, the reaction was initiated and allowed to continue for an additional 10 min at 37 °C upon the addition of 10 mM p-NPPPh in a total reaction volume of 80 μL. Following the incubation period, the absorbance of the mixture was measured at 405 nm using a microplate reader. The enzyme activity was quantified in units, where one unit corresponds to the amount of enzyme needed to hydrolyze 1 micromol of p-NPPPh. The inhibitory activity of PDE5 (%) was calculated by determining the residual activity (U). PDE5 inhibitory activity (%) = ([Residual unit control without sample − Residual unit control with sample]/Residual unit control without sample) × 100

[2] = APN treated with compound 10 mM
[3] = PDE5 treated with compound 1 (unit uncertain)
[4] = PDE5 treated with compound 2 (unit uncertain)
[5] = PDE5 treated with compound 5 (unit uncertain)
[6] = PDE5 treated with compound 10 (unit uncertain)
[7] = APN, calculated by method of ref 27, read-out: Kik
[8] = APN, calculated by method of ref 27, read-out: Kiv

T2 sequence (P15144 whole entry, species assumed): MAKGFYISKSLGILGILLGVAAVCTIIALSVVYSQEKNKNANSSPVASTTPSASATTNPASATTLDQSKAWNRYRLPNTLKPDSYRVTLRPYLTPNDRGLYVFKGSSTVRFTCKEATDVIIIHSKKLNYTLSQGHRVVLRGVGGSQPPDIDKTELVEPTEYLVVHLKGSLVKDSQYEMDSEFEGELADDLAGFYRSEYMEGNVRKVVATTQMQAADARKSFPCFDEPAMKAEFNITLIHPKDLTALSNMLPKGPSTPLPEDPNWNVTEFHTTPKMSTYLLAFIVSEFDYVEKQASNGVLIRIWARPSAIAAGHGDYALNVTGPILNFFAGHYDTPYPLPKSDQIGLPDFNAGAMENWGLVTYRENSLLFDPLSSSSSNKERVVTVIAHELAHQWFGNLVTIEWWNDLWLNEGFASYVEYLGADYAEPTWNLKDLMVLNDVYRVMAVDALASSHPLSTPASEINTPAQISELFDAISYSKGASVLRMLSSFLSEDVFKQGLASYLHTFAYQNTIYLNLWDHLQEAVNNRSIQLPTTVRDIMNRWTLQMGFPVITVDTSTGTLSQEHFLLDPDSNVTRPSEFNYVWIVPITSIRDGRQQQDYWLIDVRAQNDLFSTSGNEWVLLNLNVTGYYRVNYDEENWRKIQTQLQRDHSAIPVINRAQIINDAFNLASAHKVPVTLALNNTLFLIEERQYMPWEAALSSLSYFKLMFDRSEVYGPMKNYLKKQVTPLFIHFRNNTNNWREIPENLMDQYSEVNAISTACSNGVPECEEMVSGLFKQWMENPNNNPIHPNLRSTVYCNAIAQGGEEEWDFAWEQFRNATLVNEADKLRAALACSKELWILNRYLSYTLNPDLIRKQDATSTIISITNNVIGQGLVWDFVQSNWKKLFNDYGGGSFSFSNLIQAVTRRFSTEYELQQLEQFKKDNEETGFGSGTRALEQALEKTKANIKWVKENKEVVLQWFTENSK
T1 sequence (P15144 whole entry, species assumed): as above

SMILES	Kcat (APN; APN treated with compound 1 mM)	Vmax (APN; APN treated with compound 1 mM)	Kcat (APN; APN treated with compound 2 mM)	Vmax (APN; APN treated with compound 2 mM)	Kcat (APN; APN treated with compound 5 mM)	Vmax (APN; APN treated with compound 5 mM)	Kcat (APN; [2])	Vmax (APN; [2])	Ki (APN; APN, read-out: Ki)	inhibition type against APN (APN)	inhibition of APN in in vitro enzyme assay (aminopeptidase N (APN))	enzymatic activity of APN (aminopeptidase N (APN))	Kcat (PDE5; [3])	Vmax (PDE5; [3])	Kcat (PDE5; [4])	Vmax (PDE5; [4])	Kcat (PDE5; [5])	Vmax (PDE5; [5])	Kcat (PDE5; [6])	Vmax (PDE5; [6])	other results
C=CCSSCC=C [DADS, diallyl disulfide]	394.8 ± 3.7 s⁻¹	0.318 ± 0.003 mU/min	379.5 ± 7.4 s⁻¹	0.306 ± 0.006 mU/min	368.8 ± 6.2 s⁻¹	0.297 ± 0.005 mU/min	364.9 ± 5.0 s⁻¹	0.294 ± 0.004 mU/min	65.7 mM	uncompetitive-type	11%	0.34 ± 0.02 U	7253 ± 189 k s^−1	0.959 ± 0.025 mU/min	6625 ± 159 k s^−1	0.876 ± 0.021 mU/min	5905 ± 83 k s^−1	0.781 ± 0.011 mU/min	4383 ± 76 k s^−1	0.580 ± 0.010 mU/min	Vmax value of APN, fold of non-treated group (APN; highest concentration): 0.93 fold; IC50 (aminopeptidase N (APN)): > 10 mM; Kik/Kiv (PDE5): 16.0; inhibition type against PDE5 (PDE5): noncompetitive-type; Vmax value of PDE5, fold of non-treated group (PDE5; highest concentration): 0.56 fold
C=CCSSSCC=C [DATS, diallyl trisulfide]	368.9 ± 7.4 s⁻¹	0.297 ± 0.006 mU/min	365.3 ± 6.2 s⁻¹	0.294 ± 0.005 mU/min	309.2 ± 5.0 s⁻¹	0.249 ± 0.004 mU/min	285.9 ± 5.0 s⁻¹	0.230 ± 0.004 mU/min	18.7 mM	mixed-type	19%	0.31 ± 0.02 U	7105 ± 197 k s^−1	0.940 ± 0.026 mU/min	6757 ± 242 k s^−1	0.894 ± 0.032 mU/min	4955 ± 174 k s^−1	0.655 ± 0.023 mU/min	3371 ± 144 k s^−1	0.446 ± 0.019 mU/min	Ki (APN; [7]): 68.5 mM; Ki (APN; [8]): 26.9 mM; Kik/Kiv (APN; APN, ratio according to Yang et al. [27]): 2.5; Km value of APN, fold of non-treated (APN; highest concentration): 1.15 fold; Vmax value of APN, fold of non-treated group (APN; highest concentration): 0.73 fold; Ki (PDE5): 7.53 mM; Kik/Kiv (PDE5): 17.8; inhibition type against PDE5 (PDE5): noncompetitive-type; Vmax value of PDE5, fold of non-treated group (PDE5; highest concentration): 0.43 fold; IC50 [1]: 9.49 mM; inhibition rate of PDE5 [1]: 52%; reduction of PDE5 enzymatic activity [1]: 8.34–51.75%
C/C=C/[S@+]([O-])C[C@H](N)C(=O)O [IA, isoalliin]	381.3 ± 6.2 s⁻¹	0.307 ± 0.005 mU/min	331.6 ± 7.4 s⁻¹	0.267 ± 0.006 mU/min	298.9 ± 4.9 s⁻¹	0.241 ± 0.004 mU/min	275.8 ± 3.7 s⁻¹	0.222 ± 0.003 mU/min	33.1 mM	mixed-type	26%	0.28 ± 0.01 U	6587 ± 159 k s^−1	0.871 ± 0.021 mU/min	5489 ± 151 k s^−1	0.726 ± 0.020 mU/min	4387 ± 129 k s^−1	0.580 ± 0.017 mU/min	4018 ± 114 k s^−1	0.531 ± 0.015 mU/min	Ki (APN; [8]): 23.7 mM; Vmax value of APN, fold of non-treated group (APN; highest concentration): 0.70 fold; Ki (PDE5): 10.8 mM; Kik/Kiv (PDE5): 13.0; inhibition type against PDE5 (PDE5): noncompetitive-type; Vmax value of PDE5, fold of non-treated group (PDE5; highest concentration): 0.51 fold; IC50 [1]: 8.42 mM; inhibition rate of PDE5 [1]: 51%; reduction of PDE5 enzymatic activity [1]: 17.23–51.41%
O=c1c(O)c(-c2ccc(O)cc2)oc2cc(O)cc(O)c12 [KAE, kaempferol]	396.3 ± 7.5 s⁻¹	0.319 ± 0.006 mU/min	352.8 ± 7.4 s⁻¹	0.284 ± 0.006 mU/min	308.0 ± 5.0 s⁻¹	0.248 ± 0.004 mU/min	268.5 ± 3.7 s⁻¹	0.216 ± 0.003 mU/min	11.9 mM	uncompetitive-type	29%	0.27 ± 0.01 U	5076 ± 98 k s^−1	0.671 ± 0.013 mU/min	4591 ± 76 k s^−1	0.607 ± 0.010 mU/min	2390 ± 121 k s^−1	0.316 ± 0.016 mU/min	1228 ± 69 k s^−1	0.162 ± 0.009 mU/min	Ki (APN; [7]): 42.1 mM; Ki (APN; [8]): 21.7 mM; IC50 (aminopeptidase N (APN)): > 10 mM; inhibition type against PDE5 (PDE5): uncompetitive-type
C[S@+]([O-])C[C@H](N)C(=O)O [MT, methiin]	367.0 ± 3.7 s⁻¹	0.296 ± 0.003 mU/min	310.6 ± 6.2 s⁻¹	0.250 ± 0.005 mU/min	246.8 ± 3.7 s⁻¹	0.199 ± 0.003 mU/min	218.9 ± 2.5 s⁻¹	0.176 ± 0.002 mU/min	13.4 mM	noncompetitive-type	32%	0.26 ± 0.02 U	6261 ± 189 k s^−1	0.828 ± 0.025 mU/min	5580 ± 159 k s^−1	0.738 ± 0.021 mU/min	4007 ± 98 k s^−1	0.530 ± 0.013 mU/min	3673 ± 144 k s^−1	0.486 ± 0.019 mU/min	Ki (APN; [8]): 12.6 mM; Vmax value of APN, fold of non-treated group (APN; highest concentration): 0.56 fold; Ki (PDE5): 21.5 mM; Kik/Kiv (PDE5): 3.2; inhibition type against PDE5 (PDE5): uncompetitive-type; Km value of PDE5, fold of non-treated (PDE5; highest concentration): 0.74 fold; Vmax value of PDE5, fold of non-treated group (PDE5; highest concentration): 0.47 fold; IC50 [1]: 7.56 mM; reduction of PDE5 enzymatic activity [1]: 24.83–53.90%
